The values that follow come from PubChem BioAssay (NCI).

Where “and” joins values, the source holds several entries; their conditions need not be identical. Equal values may be shown once.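 Briefly, cells in 96-well plates were exposed to five compound concentrations for 48 h, and endpoints were estimated by linear interpolation. GI50 marks 50% less growth. TGI denotes the concentration required for complete inhibition of growth.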 A value given as a limit tells only on which side of the number the result lay.

What all share (assay): growth of human tumour cells (NCI), 48 h
Experiment [1] has as its system HCT-116 colon.
Experiment [2] has as its system K-562 leukemia.
Experiment [3] deals with KM12 colon.
The subject of experiment [4] is MALME-3M melanoma.
Experiment [5] has as its system MDA-MB-435.
The test system of experiment [6] is PC-3 prostate.
Experiment [7] deals with RXF 393 renal.
Experiment [8] deals with SNB-19 CNS.
Experiment [9] deals with U251 CNS.
Experiment [10] relates to UO-31 renal.

With `COc1nc(C#CCCCC#N)nc(OC)n1`, the TGI was 41.3 µM in experiment [1]; over 100 µM in [2]; 36.3 µM in experiment [3]; 28.5 µM in experiment [4]; 27.7 µM in experiment [5]; 30.9 µM in [6]. The TGI in experiment [7] was 30.9 µM; in experiment [8] it was over 100 µM; in experiment [9], 26.7 µM; in experiment [10], 24.9 µM.
Regarding `COC1(OC)C[C@H](C)[C@@]23O[C@]24c2cc(O)c5c(c2N[C@H]3C#C/C=C\C#C[C@]14O)C(=O)c1ccccc1C5=O`, the TGI in experiment [1] is 0.148 µM; in experiment [2], 0.101 µM and 0.201 µM; in experiment [3], 0.0847 µM and 0.108 µM; in experiment [5] it was 0.139 µM and 0.175 µM; in experiment [6], 0.182 µM; in [7], 0.0256 µM and 0.0186 µM. Further, the TGI was 0.225 µM in experiment [8]; 0.0421 µM and 0.0705 µM in experiment [9]; 0.0176 µM in experiment [10]. Also, the GI50 in experiment [2] is 0.00399 µM; in experiment [3], 0.0138 µM and 0.0249 µM; in [4], under 0.001 µM; in experiment [5], 0.0184 µM; in [6], 0.163 µM; in experiment [7] it was 0.00163 µM. Also, the GI50 in experiment [9] is 0.00251 µM.
`CC(=O)C1=C(O)C2(O)C(=O)c3c(c(C)c4ccc(C)c(O)c4c3O)CC2C(N)C1=O` (stereo not drawn): the TGI in experiment [1] was 14 µM; in experiment [2], 12.2 µM; in [3], 8.29 µM; in [4], 4.74 µM; in experiment [5], 4.86 µM; in experiment [6] it was 11.7 µM. Further, the TGI was 20 µM in experiment [7], 23.9 µM in [8], 7.82 µM in experiment [9] and 11.1 µM in [10]. Also, the GI50 in [5] was 1.11 µM; in [6] it was 0.754 µM.
For the molecule `N#CCc1[nH]nc2nc(SCc3ccccc3)nc(N3CCCCC3)c12`, the TGI was 32.4 µM in experiment [1]; 34.6 µM in experiment [2]; 33 µM in experiment [3]; 41.8 µM in experiment [4]; 35 µM in experiment [5]; 34 µM in experiment [6]. The TGI in experiment [7] is 32.2 µM; in [8] it was 34.8 µM; in [9], 35.2 µM; in [10], 35.9 µM.
Consider `COc1ccc(/C=c2/[nH]c(=O)/c(=C\c3ccc(OCc4ccccc4)cn3)[nH]c2=O)cc1`, for which the TGI in experiment [1], in experiment [2], in experiment [3], in [4], in experiment [5] and in experiment [6] was over 100 µM in each case. Also, the TGI is 83.5 µM in experiment [7], over 100 µM in experiment [8], over 100 µM in experiment [9] and over 100 µM in experiment [10].
